Results as given in ChEMBL document CHEMBL4808217, “Design, Synthesis, and Characterization of 4-Aminoquinazolines as Potent Inhibitors of the G Protein-Coupled Receptor Kinase 6 (GRK6) for the Treatment of Multiple Myeloma” (J Med Chem, 2021).

Experiments:
[1] = biological target: T1, Aurora kinase A (Homo sapiens, UniProt O14965); experiment: Inhibition of recombinant full length human Aurora A using LRRASLG as substrate incubated for 40 mins in presence of [gamma-33ATP] by radiometric scintillation counting method
T1 sequence (O14965 whole entry): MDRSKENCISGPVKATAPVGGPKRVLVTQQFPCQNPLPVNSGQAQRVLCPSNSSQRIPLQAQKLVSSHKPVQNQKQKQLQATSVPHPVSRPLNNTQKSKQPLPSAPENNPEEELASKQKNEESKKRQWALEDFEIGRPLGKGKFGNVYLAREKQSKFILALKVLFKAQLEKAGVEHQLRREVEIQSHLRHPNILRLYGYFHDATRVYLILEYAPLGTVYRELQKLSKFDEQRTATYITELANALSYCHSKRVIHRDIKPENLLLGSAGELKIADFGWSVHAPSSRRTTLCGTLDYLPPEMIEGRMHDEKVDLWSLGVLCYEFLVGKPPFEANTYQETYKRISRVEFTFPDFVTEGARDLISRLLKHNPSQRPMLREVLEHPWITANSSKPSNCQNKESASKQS

[2] = biological target: T2, Beta-adrenergic receptor kinase 1 (Homo sapiens, UniProt P25098); experiment: Inhibition of human GRK2 using casein as substrate in presence of [gamma33P]ATP by radiometric hotspot kinase assay
T2 sequence (P25098 whole entry): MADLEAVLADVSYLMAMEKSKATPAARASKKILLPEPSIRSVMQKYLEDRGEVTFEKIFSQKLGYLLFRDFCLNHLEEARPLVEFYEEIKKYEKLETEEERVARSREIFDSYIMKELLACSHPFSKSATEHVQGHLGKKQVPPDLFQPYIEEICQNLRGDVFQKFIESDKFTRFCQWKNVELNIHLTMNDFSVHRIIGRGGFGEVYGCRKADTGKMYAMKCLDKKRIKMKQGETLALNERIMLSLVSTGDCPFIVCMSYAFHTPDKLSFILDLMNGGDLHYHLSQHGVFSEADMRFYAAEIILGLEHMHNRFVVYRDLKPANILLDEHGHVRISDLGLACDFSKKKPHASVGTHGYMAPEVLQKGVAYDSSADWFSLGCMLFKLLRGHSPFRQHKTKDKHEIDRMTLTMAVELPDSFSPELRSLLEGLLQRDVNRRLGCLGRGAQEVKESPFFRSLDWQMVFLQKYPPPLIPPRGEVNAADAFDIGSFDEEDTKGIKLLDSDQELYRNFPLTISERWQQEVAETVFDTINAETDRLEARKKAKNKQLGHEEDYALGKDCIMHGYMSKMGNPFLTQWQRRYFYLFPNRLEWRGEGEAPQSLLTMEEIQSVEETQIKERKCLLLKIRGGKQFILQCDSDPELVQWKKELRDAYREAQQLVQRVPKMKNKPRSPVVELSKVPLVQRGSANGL

[3] = biological target: G protein-coupled receptor kinase 4 (Homo sapiens, UniProt P32298); experiment: Inhibition of human GRK4 using casein as substrate in presence of [gamma33P]ATP by radiometric hotspot kinase assay
Chain of G protein-coupled receptor kinase 4 (P32298 whole entry): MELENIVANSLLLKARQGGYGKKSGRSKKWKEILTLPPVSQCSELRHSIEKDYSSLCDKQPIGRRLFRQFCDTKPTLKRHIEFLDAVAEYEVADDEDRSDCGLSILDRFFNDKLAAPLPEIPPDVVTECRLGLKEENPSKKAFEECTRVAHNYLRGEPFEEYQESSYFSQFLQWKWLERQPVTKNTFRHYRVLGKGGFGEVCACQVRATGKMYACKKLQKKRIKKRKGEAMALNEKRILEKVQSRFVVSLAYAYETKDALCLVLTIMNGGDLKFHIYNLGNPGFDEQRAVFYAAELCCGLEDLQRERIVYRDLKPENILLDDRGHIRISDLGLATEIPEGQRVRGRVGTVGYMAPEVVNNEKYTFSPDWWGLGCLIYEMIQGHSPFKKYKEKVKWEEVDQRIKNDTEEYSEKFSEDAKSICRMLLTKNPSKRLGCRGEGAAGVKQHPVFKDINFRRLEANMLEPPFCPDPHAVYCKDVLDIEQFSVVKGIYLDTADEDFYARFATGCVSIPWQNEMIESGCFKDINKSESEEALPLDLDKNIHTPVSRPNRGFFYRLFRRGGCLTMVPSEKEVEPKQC

IC50 [1]: 8.9 µM | IC50 [2]: > 10 µM | IC50 [3]: 0.022 µM
SMILES: CCc1cc(Nc2nc(NCc3ccc(Cl)cc3OC)nc3cccc(OC)c23)n[nH]1
